Consider 48 compounds from patent US20260098026A1, “M4 ACTIVATORS/MODULATORS AND USES THEREOF” (Cerevel Therapeutics, LLC, priority 2022, published 2026).

pEC50: −log10 of the molar value. Some results are limits rather than exact numbers.

The target in one experiment is T1, M3 muscarinic acetylcholine receptor (mAChR) (Homo sapiens, UniProt P20309).
T1 construct: expressed in transfected cells; host or cells: CHO-K1
T1 sequence (P20309 whole entry): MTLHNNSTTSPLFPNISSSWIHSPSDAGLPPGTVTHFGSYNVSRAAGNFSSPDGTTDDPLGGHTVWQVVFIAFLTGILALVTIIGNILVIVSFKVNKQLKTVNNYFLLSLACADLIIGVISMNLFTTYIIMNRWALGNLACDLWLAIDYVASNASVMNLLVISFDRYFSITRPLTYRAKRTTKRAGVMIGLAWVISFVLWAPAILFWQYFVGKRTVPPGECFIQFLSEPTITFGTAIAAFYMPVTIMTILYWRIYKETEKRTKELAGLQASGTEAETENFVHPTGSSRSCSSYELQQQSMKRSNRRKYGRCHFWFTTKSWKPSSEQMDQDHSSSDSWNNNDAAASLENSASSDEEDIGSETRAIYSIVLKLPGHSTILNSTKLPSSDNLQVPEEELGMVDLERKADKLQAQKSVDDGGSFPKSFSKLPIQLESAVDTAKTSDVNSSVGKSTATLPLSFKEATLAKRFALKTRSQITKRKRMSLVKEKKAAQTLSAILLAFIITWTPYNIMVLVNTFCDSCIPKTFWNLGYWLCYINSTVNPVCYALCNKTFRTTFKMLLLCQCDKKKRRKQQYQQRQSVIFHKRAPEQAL
In words: FLIPR calcium assay (Fluo 8), M3-overexpressing CHO-K1 cells. The following applies: FLIPR. In kind it is cell-based. How it is done: Stimulation of a Gq-coupled G-protein coupled receptors (GPCRs), result in an efflux of calcium from the endoplasmic reticulum to the cytoplasm (Berridge, 1993), thus rendering this assay appropriate for the assessment of M1, M3 and M5 receptors. CHO-K1 cells overexpressing the M1, M3, or M5 muscarinic acetylcholine receptor (mAChR) were dispensed at 15,000 cells per well in 30 μl volume to 384-well plates and grown overnight at 37° C. in a 5% CO2 atmosphere. Fluo-8 Solution, 10 μl per well, was added to each well and incubated for 30 minutes at 37° C. in a 5% CO2 atmosphere. Compounds diluted in Hanks' balanced salt solution (HBSS) were transferred to the cell assay plate at 10 μl per well, and then read on a FLIPR instrument. EC50 and Emax figures were calculated from the resulting data for each receptor subtype.
For `CCOC(=O)N1CC2(C[C@H](N3CCN(c4cc(F)cnc4-c4cnccn4)CC3)CS2)C1` [Compound A225], the pEC50 (as a rule, the EC50 on a negative log10 scale, so that one unit is a factor of ten) was less than 5.00. Same read-out and setting: under `CCOC(=O)N1CC2(C[C@H](N3CCN(c4cccnc4-c4nncs4)CC3)CO2)C1` [Compound A237] stands less than 5.00; under `CCOC(=O)N1CC2(CC[C@@H](N3CCN(c4cc(Cl)cnc4-c4ccnc(C)n4)CC3)C2)C1` [Compound A248], less than 5.00. Same read-out and setting: the result for `CCOC(=O)N1CC2(CC[C@@H](N3CCN(c4cc(F)cnc4-c4ccccc4C(=O)NC)CC3)C2)C1` [Compound A151] reads less than 5.00.

On to `CCOC(=O)N1CC2(CC[C@@H](N3CCN(c4cc(F)cnc4-c4ccc(=O)n(C(C)C)c4)CC3)C2)C1` [Compound A149], for which the negative-log EC50 (pEC50) is less than 5.00. For the compound `CCOC(=O)N1CC2(CC[C@@H](N3CCC(c4cc(F)cnc4-c4ccc(F)cn4)CC3)C2)C1` [Compound A292], the pEC50 was less than 5.00.

The experiment is the same for the next values; noted with them: FLIPR calcium.
Take `CCOC(=O)N1CC2(CC[C@H](N3CCN(c4cc(Cl)cnc4C4CCOCC4)CC3)C2)C1` (single isomer, unassigned) [Compound A16]: the pEC50 is less than 5.00.

For `CCOC(=O)N1CC2(CC[C@@H](N3CCN(c4cc(F)cnc4-c4cccc5cn(C)nc45)CC3)C2)C1` [Compound A66], the pEC50 is less than 5.00. Still for that read-out and setting: under `CCOC(=O)N1CC2(CC[C@@H](N3CCN(c4cccnc4-c4cncc(C#N)c4)CC3)C2)C1` [Compound A27] stands less than 5.00; under `CCOC(=O)N1CC2(CC[C@@H](N3CCN(c4cccnc4OC4CCC4)CC3)C2)C1` [Compound A5, (R)-ethyl 6-(4-(2-cyclobutoxypyridin-3-yl)piperazin-1-yl)-2-azaspiro[3.4]octane-2-carboxylate], less than 5.00.

Another experiment concerns the target T2, M4 mAChR (Homo sapiens, UniProt P08173).
T2 construct: expressed in transfected cells; host or cells: CHO-K1
T2 sequence (P08173 1-479): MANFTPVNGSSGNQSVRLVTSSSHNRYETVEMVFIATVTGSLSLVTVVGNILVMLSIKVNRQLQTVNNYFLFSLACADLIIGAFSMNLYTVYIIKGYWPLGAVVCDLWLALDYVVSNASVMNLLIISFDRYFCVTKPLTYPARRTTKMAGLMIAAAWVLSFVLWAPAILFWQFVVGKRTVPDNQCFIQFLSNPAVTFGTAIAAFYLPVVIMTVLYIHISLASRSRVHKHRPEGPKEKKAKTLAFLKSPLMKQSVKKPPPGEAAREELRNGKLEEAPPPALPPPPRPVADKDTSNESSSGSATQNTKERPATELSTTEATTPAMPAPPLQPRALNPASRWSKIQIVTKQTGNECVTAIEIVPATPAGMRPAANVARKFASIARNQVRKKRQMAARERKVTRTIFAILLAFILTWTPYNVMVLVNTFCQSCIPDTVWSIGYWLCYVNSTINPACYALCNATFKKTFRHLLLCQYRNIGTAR
The experiment is described as follows: cAMP TR-FRET assay with forskolin, M4-overexpressing CHO-K1 cells. The class given is cell-based. The following applies: cAMP TR-FRET with forskolin. The text has this: The M2 and M4 mACh receptors are Gi-coupled receptors which, upon activation, produce a decrease in cAMP. Assays were developed that measured the potency and efficacy of compounds at the M2 or M4 mAChR using M2- or M4-overexpressing CHO-K1 cell lines. Time-resolved fluorescence resonance energy transfer (TR-FRET) technology was used, where signal occurs as a result of transfer of energy if the donor molecule is in close proximity to an acceptor molecule when the molecules have bound to the molecule of interest. The cAMP detection is a competition binding assay, where cAMP produced by cells competes for binding with the labeled donor molecule to the anti-cAMP acceptor antibody. Due to the low basal levels of cAMP in the CHO-K1 cell line, forskolin was used to increase cAMP levels to enable assessment of agonist activity at the mAChR of interest.
In general terms: In TR-FRET formats the signal depends on donor and acceptor labels being close together.
Turning to `CCOC(=O)N1CC2(CC[C@@H](N3CCC(c4cc(F)cnc4-c4nncs4)CC3)C2)C1` (single isomer, unassigned) [Compound A22], the maximal effect (Emax) (commonly the maximal effect, on the per cent scale that the assay sets) is 80 to 100%. On the same count and under the same terms, under `CCOC(=O)N1CC2(CC[C@@H](N3CCN(c4cc(F)cnc4C4(F)CCOCC4)CC3)C2)C1` (single isomer, unassigned) [Compound A19] stands 80 to 100%; under `CCOC(=O)N1CC2(CC[C@H](N3CCC(c4cc(F)cnc4-c4nncs4)CC3)C2)C1` (single isomer, unassigned) [Compound A21], 80 to 100%. On the same count and under the same terms, under `CCOC(=O)N1CC2(CC[C@@H](N3CCC(c4cc(F)cnc4-c4cnccn4)CC3)C2)C1` (single isomer, unassigned) [Compound A11] stands 80 to 100%; under `CCOC(=O)N1CC2(CC[C@@H](N3CCN(c4cc(F)cnc4-c4cscn4)CC3)C2)C1` [Compound A8, ethyl (6R)-6-[4-(5-fluoro-2-thiazol-4-yl-3-pyridyl)piperazin-1-yl]-2-azaspiro[3.4]octane-2-carboxylate], 80 to 100%. `CCOC(=O)N1CC2(CC[C@@H](N3CCC(O)(c4cc(F)cnc4-c4cnccn4)CC3)C2)C1` (single isomer, unassigned) [Compound A14] came in with an Emax of 80 to 100%. As to `CCOC(=O)N1CC2(CC[C@H](N3CCC(c4cc(F)cnc4-c4cnccn4)CC3)C2)C1` (single isomer, unassigned) [Compound A12], the Emax is 80 to 100%. Still for that read-out and setting: the result for `CCOC(=O)N1CC2(CCC(N3CCN(c4cccnc4N4CCC4)CC3)C2)C1` (stereo not drawn) [Compound A4, ethyl 6-(4-(2-(azetidin-1-yl)pyridin-3-yl)piperazin-1-yl)-2-azaspiro[3.4]octane-2-carboxylate] reads 80 to 100%; that for `CCOC(=O)N1CC2(CC[C@H](N3CCC(c4cc(F)cnc4-n4cc(C)nn4)CC3)C2)C1` (single isomer, unassigned) [Compound A24], 80 to 100%. Same read-out and setting: under `CCOC(=O)N1CC2(CC[C@@H](N3CCN(c4cccnc4-c4cncc(OC(F)F)c4)CC3)C2)C1` [Compound A28] stands 80 to 100%. In turn, `CCOC(=O)N1CC2(CC[C@@H](N3CCC(c4cc(F)cnc4-n4cc(C)nn4)CC3)C2)C1` (single isomer, unassigned) [Compound A23] had an Emax of 80 to 100%.

The same experiment, now with this note: cAMP assay.
With `CCOC(=O)N1CC2(CC[C@@H](N3CCN(c4cc(F)cnc4-c4nc(C)cs4)CC3)C2)C1` [Compound A267], the Emax was 50 to 79.9%. For `CCOC(=O)N1CC2(CC[C@@H](N3CCN(c4cc(F)cnc4-c4ncc(C)s4)CC3)C2)C1` [Compound A266], the maximal response (Emax) lay within 80 to 100%. Regarding `CCOC(=O)N1CC2(CC[C@@H](N3CCN(c4cc(Cl)cnc4-c4cnc(C)nc4)CC3)C2)C1` [Compound A271], the Emax fell in the range of 80 to 100%. Same read-out and setting: the result for `CCOC(=O)N1CC2(CC[C@@H](N3CCN(c4cc(Cl)cnc4-c4ncccc4Cl)CC3)C2)C1` [Compound A269] reads 80 to 100%; that for `CCOC(=O)N1CC2(CC[C@@H](N3CCN(c4cc(F)cnc4-c4ncccc4Cl)CC3)C2)C1` [Compound A287], 80 to 100%; that for `CCOC(=O)N1CC2(CC[C@@H](N3CCN(c4cc(F)cnc4-c4nncs4)CC3)C2)C1` [Compound A236], 80 to 100%. In the case of `CCOC(=O)N1CC2(CC[C@@H](N3CCN(c4cccnc4C4CCOCC4)CC3)C2)C1` [Compound A278], the maximal effect (Emax) fell in the range of 80 to 100%.

As for `CCOC(=O)N1CC2(CC[C@@H](N3CCN(c4cc(F)cnc4-c4cnsc4)CC3)C2)C1` [Compound A214], the Emax fell in the range of 80 to 100%.

Turning to `CCOC(=O)N1CC2(CC[C@@H](N3CCN(c4cc(F)cnc4-c4c[nH]c(=O)[nH]c4=O)CC3)C2)C1` [Compound A211], the Emax was 80 to 100%. As for `CCOC(=O)N1CC2(CC[C@@H](N3CCN(c4cc(F)cnc4-c4ncc(F)cc4F)CC3)C2)C1` [Compound A240], the Emax fell in the range of 80 to 100%. As to `CCOC(=O)N1CC2(CC[C@@H](N3CCN(c4cc(F)cnc4C4CCC(F)(F)CC4)CC3)C2)C1` [Compound A275], the Emax fell in the range of 80 to 100%. Still for that read-out and setting: the result for `CCOC(=O)N1CC2(CC[C@@H](N3CCN(c4cc(F)cnc4C4CC5(COC5)C4)CC3)C2)C1` [Compound A277] reads 80 to 100%. Same read-out and setting: the result for `CCOC(=O)N1CC2(CC[C@@H](N3CCN(c4cc(Cl)cnc4-c4ncccc4F)CC3)C2)C1` [Compound A268] reads 80 to 100%; that for `CCOC(=O)N1CC2(CC[C@@H](N3CCN(c4cc(Cl)cnc4-c4cnc(C)cn4)CC3)C2)C1` [Compound A239], 80 to 100%.

In turn, `CCOC(=O)N1CC2(CC[C@@H](N3CCN(c4cc(Cl)cnc4-c4cscn4)CC3)C2)C1` [Compound A212] gave an Emax of 80 to 100%. Still for that read-out and setting: the result for `CCOC(=O)N1CC2(CC[C@@H](N3CCN(c4cccnc4-c4nncs4)CC3)C2)C1` [Compound A264] reads 80 to 100%. As for `CCOC(=O)N1CC2(CC[C@@H](N3CCN(c4cc(Cl)cnc4-n4nccn4)CC3)C2)C1` [Compound A262], the Emax was in the range of 80 to 100%. `CCOC(=O)N1CC2(CC[C@@H](N3CCN(c4cc(F)cnc4-c4ccns4)CC3)C2)C1` [Compound A213] displayed an Emax of 80 to 100%. As to `CCOC(=O)N1CC2(CC[C@@H](N3CCN(c4cc(F)cnc4-c4nccs4)CC3)C2)C1` [Compound A286], the Emax lay in the range of 80 to 100%. The same measure, in the same setting: under `CCOC(=O)N1CC2(CC[C@@H](N3CCN(c4cc(F)cnc4OC4(C)CCOCC4)CC3)C2)C1` [Compound A261] stands 80 to 100%. The same measure, in the same setting: under `CCOC(=O)N1CC2(CC[C@@H](N3CCN(c4cc(F)cnc4-c4ccc(C)nn4)CC3)C2)C1` [Compound A241] stands 50 to 79.9%; under `CCOC(=O)N1CC2(CC[C@@H](N3CCN(c4cc(F)cnc4-n4cnnc4)CC3)C2)C1` [Compound A260], 80 to 100%.

`CCOC(=O)N1CC2(CC[C@@H](N3CCN(c4cc(Cl)cnc4Br)CC3)C2)C1` [Compound A263] gave an Emax of 80 to 100%. Compound `CCOC(=O)N1CC2(CC[C@@H](N3CCN(c4cc(F)cnc4-c4ccsn4)CC3)C2)C1` [Compound A270] gave a maximal response (Emax) of 80 to 100%. Same read-out and setting: the result for `CCOC(=O)N1CC2(CC[C@@H](N3CCN(c4cc(F)cnc4C4CCOC4)CC3)C2)C1` (single isomer, unassigned) [Compound A281] reads 80 to 100%; that for `CCOC(=O)N1CC2(CC[C@@H](N3CCN(c4cc(F)cnc4-c4cccnn4)CC3)C2)C1` [Compound A242], 80 to 100%; that for `CCOC(=O)N1CC2(CC[C@@H](N3CCN(c4cc(F)cnc4-c4nccnc4OC)CC3)C2)C1` [Compound A238], 19 to 49.9%.
